The values that follow come from patent publication US12227500B2, “Substituted pyrrolo[2,3-b]pyridines for suppressing toxic endoplasmic reticulum stress” (THE TRUSTEES OF COLUMBIA UNIVERSITY IN THE CITY OF NEW YORK, priority 2018, dated 2025).

Common to all, as to assay: Radiolabeled ATP kinase assay, panel of 371 kinases (Table S6)
Common to all, as to format: biochemical

In assay [1] the target is T1, panel of 371 human kinases (Homo sapiens, UniProt Q8N5S9).
T1 construct: purchased Reaction Biology Corp
Particulars: CAMKK1; 0.1 μM; 10 μM ATP; read-out: % Enzyme Activity (relative to DMSO controls). The source says: (§1) ; FIG. 38C). […]. Further targeted analyses, such as genetic knock-down or knock-out, may be warranted to parse the role of these additional kinases in our model of neurodegeneration.

Assay [2] concerns the target T2, panel of 371 human kinases (Homo sapiens, UniProt P35916).
T2 construct: purchased Reaction Biology Corp
Particulars: FLT4/VEGFR3; 0.1 μM; 10 μM ATP; read-out: % Enzyme Activity (relative to DMSO controls).
From the text: as §1

The target of assay [3] is T3, panel of 371 human kinases (Homo sapiens, UniProt Q6PHR2).
T3 construct: purchased Reaction Biology Corp
Particulars: ULK3; 0.1 μM; 10 μM ATP; read-out: % Enzyme Activity (relative to DMSO controls).
From the text: as §1

Assay [4] deals with T4, panel of 371 human kinases (Homo sapiens, UniProt Q9Y5S2).
T4 construct: purchased Reaction Biology Corp
The conditions noted are these: MRCKb/CDC42BPB; 0.1 μM; 10 μM ATP; read-out: % Enzyme Activity (relative to DMSO controls).
From the text: as §1

Assay [5] has as its target T5, panel of 371 human kinases (Homo sapiens, UniProt Q9H4A3).
T5 construct: purchased Reaction Biology Corp
Particulars: WNK1; 0.1 μM; 10 μM ATP; read-out: % Enzyme Activity (relative to DMSO controls).
From the text: as §1

Assay [6] addresses T6, panel of 371 human kinases (Homo sapiens, UniProt P41240).
T6 construct: purchased Reaction Biology Corp
Particulars: CSK; 0.1 μM; 10 μM ATP; read-out: % Enzyme Activity (relative to DMSO controls).
From the text: as §1

The target of assay [7] is T7, panel of 371 human kinases (Homo sapiens, UniProt O60285).
T7 construct: purchased Reaction Biology Corp
The conditions noted are these: ARK5/NUAK1; 0.1 μM; 10 μM ATP; read-out: % Enzyme Activity (relative to DMSO controls).
From the text: as §1

Assay [8] has as its target T8, panel of 371 human kinases (Homo sapiens, UniProt P17612).
T8 construct: purchased Reaction Biology Corp
The conditions noted are these: PKA; 0.1 μM; 10 μM ATP; read-out: % Enzyme Activity (relative to DMSO controls).
From the text: as §1

Assay [9] deals with T9, panel of 371 human kinases (Homo sapiens, UniProt P05129).
T9 construct: purchased Reaction Biology Corp
Particulars: PKCg; 0.1 μM; 10 μM ATP; read-out: % Enzyme Activity (relative to DMSO controls).
From the text: as §1

For assay [10], the target named is T10, panel of 371 human kinases (Homo sapiens, UniProt Q8IWQ3).
T10 construct: purchased Reaction Biology Corp
The conditions noted are these: BRSK2; 0.1 μM; 10 μM ATP; read-out: % Enzyme Activity (relative to DMSO controls).
From the text: as §1

Assay [11] addresses T11, panel of 371 human kinases (Homo sapiens, UniProt Q9NYL2).
T11 construct: purchased Reaction Biology Corp
The conditions noted are these: ZAK/MLTK; 0.1 μM; 10 μM ATP; read-out: % Enzyme Activity (relative to DMSO controls).
From the text: as §1

For assay [12], the target named is T12, panel of 371 human kinases (Homo sapiens, UniProt P04629).
T12 construct: purchased Reaction Biology Corp
The conditions noted are these: TRKA; 0.1 μM; 10 μM ATP; read-out: % Enzyme Activity (relative to DMSO controls).
From the text: as §1

In assay [13] the target is T13, panel of 371 human kinases (Homo sapiens, UniProt Q13470).
T13 construct: purchased Reaction Biology Corp
The conditions noted are these: TNK1; 0.1 μM; 10 μM ATP; read-out: % Enzyme Activity (relative to DMSO controls).
From the text: as §1

The target of assay [14] is T14, panel of 371 human kinases (Homo sapiens, UniProt Q96BR1).
T14 construct: purchased Reaction Biology Corp
The conditions noted are these: SGK3/SGKL; 0.1 μM; 10 μM ATP; read-out: % Enzyme Activity (relative to DMSO controls).
From the text: as §1

For assay [15], the target named is T15, panel of 371 human kinases (Homo sapiens, UniProt Q06187).
T15 construct: purchased Reaction Biology Corp
The conditions noted are these: BTK; 0.1 μM; 10 μM ATP; read-out: % Enzyme Activity (relative to DMSO controls).
From the text: as §1

The target of assay [16] is T16, panel of 371 human kinases (Homo sapiens, UniProt P08922).
T16 construct: purchased Reaction Biology Corp
The conditions noted are these: ROS/ROS1; 0.1 μM; 10 μM ATP; read-out: % Enzyme Activity (relative to DMSO controls).
From the text: as §1

Assay [17] addresses T17, panel of 371 human kinases (Homo sapiens, UniProt P08581).
T17 construct: purchased Reaction Biology Corp
The conditions noted are these: c-MET; 0.1 μM; 10 μM ATP; read-out: % Enzyme Activity (relative to DMSO controls).
From the text: as §1

Assay [18] concerns the target T18, panel of 371 human kinases (Homo sapiens, UniProt Q15835).
T18 construct: purchased Reaction Biology Corp
The conditions noted are these: GRK1; 0.1 μM; 10 μM ATP; read-out: % Enzyme Activity (relative to DMSO controls).
From the text: as §1

Assay [19] concerns the target T19, panel of 371 human kinases (Homo sapiens, UniProt P27448).
T19 construct: purchased Reaction Biology Corp
Particulars: MARK3; 0.1 μM; 10 μM ATP; read-out: % Enzyme Activity (relative to DMSO controls).
From the text: as §1

Assay [20] concerns the target T20, panel of 371 human kinases (Homo sapiens, UniProt P42680).
T20 construct: purchased Reaction Biology Corp
The conditions noted are these: TEC; 0.1 μM; 10 μM ATP; read-out: % Enzyme Activity (relative to DMSO controls).
From the text: as §1

Assay [21] concerns the target T21, panel of 371 human kinases (Homo sapiens, UniProt Q16513).
T21 construct: purchased Reaction Biology Corp
Particulars: PKN2/PRK2; 0.1 μM; 10 μM ATP; read-out: % Enzyme Activity (relative to DMSO controls).
From the text: as §1

Assay [22] concerns the target T22, panel of 371 human kinases (Homo sapiens, UniProt P22607).
T22 construct: purchased Reaction Biology Corp
The conditions noted are these: FGFR3; 0.1 μM; 10 μM ATP; read-out: % Enzyme Activity (relative to DMSO controls).
From the text: as §1

Assay [23] addresses T23, panel of 371 human kinases (Homo sapiens, UniProt Q86Y07).
T23 construct: purchased Reaction Biology Corp
The conditions noted are these: VRK2; 0.1 μM; 10 μM ATP; read-out: % Enzyme Activity (relative to DMSO controls).
From the text: as §1

Assay [24] has as its target T24, panel of 371 human kinases (Homo sapiens, UniProt Q02750).
T24 construct: purchased Reaction Biology Corp
Particulars: MEK1; 0.1 μM; 10 μM ATP; read-out: % Enzyme Activity (relative to DMSO controls).
From the text: as §1

T17 sequence (P08581 25-1390): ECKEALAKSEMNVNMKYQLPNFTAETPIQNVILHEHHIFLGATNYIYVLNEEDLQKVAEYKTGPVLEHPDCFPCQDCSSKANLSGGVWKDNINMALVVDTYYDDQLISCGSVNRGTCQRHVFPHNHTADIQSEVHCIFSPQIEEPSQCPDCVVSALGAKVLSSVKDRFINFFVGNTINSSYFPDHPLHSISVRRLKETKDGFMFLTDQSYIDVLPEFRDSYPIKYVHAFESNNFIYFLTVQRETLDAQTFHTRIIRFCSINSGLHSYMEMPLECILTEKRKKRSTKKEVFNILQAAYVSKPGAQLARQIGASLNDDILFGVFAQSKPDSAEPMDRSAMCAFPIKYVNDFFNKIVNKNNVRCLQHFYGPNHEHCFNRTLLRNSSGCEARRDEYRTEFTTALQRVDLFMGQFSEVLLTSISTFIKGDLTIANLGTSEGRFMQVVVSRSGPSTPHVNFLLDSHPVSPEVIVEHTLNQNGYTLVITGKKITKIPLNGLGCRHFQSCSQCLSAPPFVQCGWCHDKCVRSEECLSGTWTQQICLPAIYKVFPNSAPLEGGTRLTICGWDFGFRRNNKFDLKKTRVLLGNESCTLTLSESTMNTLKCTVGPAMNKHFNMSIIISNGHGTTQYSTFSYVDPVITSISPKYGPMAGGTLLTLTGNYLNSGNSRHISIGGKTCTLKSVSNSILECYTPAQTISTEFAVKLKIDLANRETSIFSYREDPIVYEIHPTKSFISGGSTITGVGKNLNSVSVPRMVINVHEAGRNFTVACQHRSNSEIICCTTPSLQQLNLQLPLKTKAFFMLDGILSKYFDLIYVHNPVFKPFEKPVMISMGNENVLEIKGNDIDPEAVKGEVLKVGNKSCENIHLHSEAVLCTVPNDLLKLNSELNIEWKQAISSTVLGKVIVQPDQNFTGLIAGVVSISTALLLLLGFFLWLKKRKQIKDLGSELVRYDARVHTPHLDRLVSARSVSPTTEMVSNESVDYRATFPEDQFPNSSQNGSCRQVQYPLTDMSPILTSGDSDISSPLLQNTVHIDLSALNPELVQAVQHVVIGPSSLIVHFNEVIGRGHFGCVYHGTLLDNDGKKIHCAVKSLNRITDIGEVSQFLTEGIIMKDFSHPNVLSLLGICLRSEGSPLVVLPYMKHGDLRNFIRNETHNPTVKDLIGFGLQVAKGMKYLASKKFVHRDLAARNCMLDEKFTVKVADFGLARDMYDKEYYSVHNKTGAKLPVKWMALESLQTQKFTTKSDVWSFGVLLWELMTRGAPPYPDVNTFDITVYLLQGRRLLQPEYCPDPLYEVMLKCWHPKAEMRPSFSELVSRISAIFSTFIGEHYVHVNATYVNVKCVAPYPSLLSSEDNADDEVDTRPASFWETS
T18 sequence (Q15835 whole entry): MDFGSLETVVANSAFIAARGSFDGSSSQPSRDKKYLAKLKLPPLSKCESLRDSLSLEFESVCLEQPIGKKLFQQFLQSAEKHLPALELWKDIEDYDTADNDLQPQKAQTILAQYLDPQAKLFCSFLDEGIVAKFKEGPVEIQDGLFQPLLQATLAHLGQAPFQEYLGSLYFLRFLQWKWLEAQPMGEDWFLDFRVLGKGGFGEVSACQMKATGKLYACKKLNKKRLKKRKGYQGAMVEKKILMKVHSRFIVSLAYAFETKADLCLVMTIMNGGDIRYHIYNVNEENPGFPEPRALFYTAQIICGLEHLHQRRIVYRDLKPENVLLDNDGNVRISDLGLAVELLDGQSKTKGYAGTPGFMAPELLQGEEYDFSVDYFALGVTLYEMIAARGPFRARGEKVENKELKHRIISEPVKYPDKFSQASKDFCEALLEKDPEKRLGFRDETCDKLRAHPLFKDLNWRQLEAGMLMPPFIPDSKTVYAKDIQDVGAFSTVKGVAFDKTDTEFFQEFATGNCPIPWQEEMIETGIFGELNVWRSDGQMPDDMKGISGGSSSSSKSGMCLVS
T22 sequence (P22607 23-806): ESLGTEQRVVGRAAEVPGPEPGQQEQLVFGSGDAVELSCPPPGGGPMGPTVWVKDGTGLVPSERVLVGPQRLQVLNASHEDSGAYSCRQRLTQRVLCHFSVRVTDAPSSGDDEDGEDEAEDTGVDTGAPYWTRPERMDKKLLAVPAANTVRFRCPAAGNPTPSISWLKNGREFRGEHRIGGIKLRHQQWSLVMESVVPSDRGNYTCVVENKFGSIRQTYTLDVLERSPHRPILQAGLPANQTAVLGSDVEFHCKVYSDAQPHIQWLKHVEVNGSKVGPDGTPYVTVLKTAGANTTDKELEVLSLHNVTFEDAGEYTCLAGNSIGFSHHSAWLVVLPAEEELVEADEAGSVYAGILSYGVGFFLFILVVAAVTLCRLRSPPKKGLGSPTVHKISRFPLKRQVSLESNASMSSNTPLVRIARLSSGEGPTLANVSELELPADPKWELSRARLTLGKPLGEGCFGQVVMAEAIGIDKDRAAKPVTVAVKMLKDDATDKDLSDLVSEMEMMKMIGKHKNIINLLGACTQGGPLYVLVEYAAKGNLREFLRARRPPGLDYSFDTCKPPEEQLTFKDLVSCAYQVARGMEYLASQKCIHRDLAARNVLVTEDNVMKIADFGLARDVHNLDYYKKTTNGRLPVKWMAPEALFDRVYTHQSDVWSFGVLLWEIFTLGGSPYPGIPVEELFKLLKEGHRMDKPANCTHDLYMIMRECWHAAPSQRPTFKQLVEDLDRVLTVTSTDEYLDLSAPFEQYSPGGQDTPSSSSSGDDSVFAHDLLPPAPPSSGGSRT
T24 sequence (Q02750 whole entry): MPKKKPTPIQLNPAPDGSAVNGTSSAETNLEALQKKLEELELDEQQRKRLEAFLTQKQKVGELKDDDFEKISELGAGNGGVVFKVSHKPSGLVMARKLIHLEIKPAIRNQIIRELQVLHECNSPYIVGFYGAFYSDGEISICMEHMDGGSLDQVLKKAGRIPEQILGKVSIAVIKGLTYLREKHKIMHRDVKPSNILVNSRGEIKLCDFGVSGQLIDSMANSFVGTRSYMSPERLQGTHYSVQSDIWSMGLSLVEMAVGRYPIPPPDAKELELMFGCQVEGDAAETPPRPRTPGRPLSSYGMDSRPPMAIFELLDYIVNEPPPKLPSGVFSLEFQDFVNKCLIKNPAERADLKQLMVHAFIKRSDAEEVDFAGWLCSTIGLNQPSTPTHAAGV
T3 sequence (Q6PHR2 whole entry): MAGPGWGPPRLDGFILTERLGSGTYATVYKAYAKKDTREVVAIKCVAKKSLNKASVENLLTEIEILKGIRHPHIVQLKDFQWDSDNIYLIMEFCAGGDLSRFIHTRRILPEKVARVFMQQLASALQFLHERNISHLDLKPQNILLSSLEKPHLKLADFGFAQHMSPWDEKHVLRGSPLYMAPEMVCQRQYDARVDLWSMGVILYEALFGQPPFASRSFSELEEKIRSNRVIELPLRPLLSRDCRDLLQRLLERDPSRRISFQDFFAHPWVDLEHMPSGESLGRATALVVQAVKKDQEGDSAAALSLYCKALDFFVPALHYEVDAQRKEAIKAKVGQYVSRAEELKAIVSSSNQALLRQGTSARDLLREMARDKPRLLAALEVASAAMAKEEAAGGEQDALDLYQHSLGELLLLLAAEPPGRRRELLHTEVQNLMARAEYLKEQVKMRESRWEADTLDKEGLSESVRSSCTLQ
T13 sequence (Q13470 whole entry): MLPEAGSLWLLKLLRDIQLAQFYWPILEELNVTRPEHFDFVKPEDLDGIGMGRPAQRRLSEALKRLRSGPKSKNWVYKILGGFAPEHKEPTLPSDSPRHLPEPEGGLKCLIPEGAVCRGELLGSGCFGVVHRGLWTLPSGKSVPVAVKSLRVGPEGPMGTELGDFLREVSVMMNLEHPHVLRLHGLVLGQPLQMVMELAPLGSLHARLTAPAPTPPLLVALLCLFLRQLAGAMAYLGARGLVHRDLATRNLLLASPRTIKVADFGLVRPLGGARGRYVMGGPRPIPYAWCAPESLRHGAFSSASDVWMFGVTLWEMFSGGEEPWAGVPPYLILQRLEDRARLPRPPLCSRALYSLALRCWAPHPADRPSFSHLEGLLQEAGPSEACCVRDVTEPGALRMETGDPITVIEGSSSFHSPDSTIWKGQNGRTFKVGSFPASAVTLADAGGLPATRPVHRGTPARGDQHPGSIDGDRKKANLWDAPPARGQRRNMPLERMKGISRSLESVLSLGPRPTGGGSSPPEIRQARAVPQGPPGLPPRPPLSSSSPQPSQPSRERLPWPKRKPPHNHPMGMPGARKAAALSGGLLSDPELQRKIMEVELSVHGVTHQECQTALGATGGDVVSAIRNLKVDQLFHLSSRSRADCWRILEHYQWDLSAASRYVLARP

Turning to `CN1CCN(Cc2ccc(-c3cnc4[nH]cc(-c5ccc6[nH]ccc6c5)c4c3)cc2)CC1` [Compound 1, 3-(1H-Indol-5-yl)-5-(4-((4-methylpiperazin-1-yl)methyl)phenyl)-1H-pyrrolo[2,3-b]pyridine, reference compound], the remaining activity at 0.1 µM in [1] came to 103%; in [2], 81.7%; in assay [3] it was 70%; in assay [4], 100%; in assay [5], 117%; in [6] it was 87.5%. Further, the remaining activity at 0.1 µM in assay [7] came to 26.9%; in assay [8] it was 104%; in [9], 89%; in assay [10], 98%; in assay [11] it was 91.3%; in assay [12], 69.2%. The remaining activity at 0.1 µM in assay [13] was found to be 97%; in assay [14], 74.3%; in assay [15] it was 103%; in assay [16] it was 96%; in assay [17] it was 87.8%; in assay [18] it was 107%. Besides, the remaining activity at 0.1 µM was determined as 83.2% in [19]; 106% in assay [20]; 81.6% in assay [21]; 76.7% in assay [22]; 99.8% in [23]; 111% in assay [24].
`OCCN1CCN(Cc2ccc(-c3cnc4[nH]cc(-c5cccc(Cl)c5)c4c3)cc2)CC1` [Compound 12k, 2-(4-(4-(3-(3-Chlorophenyl)-1H-pyrrolo[2,3-b]pyridin-5-yl)benzyl)piperazin-1-yl)ethan-1-ol]: the remaining activity at 0.1 µM was 102% in assay [1]; 85.8% in [2]; 41.5% in assay [3]; 89% in assay [4]; 100% in assay [5]; 90.8% in assay [6]. Also, the remaining activity at 0.1 µM worked out at 14.4% in assay [7]; 94.5% in assay [8]; 106% in assay [9]; 93.5% in [10]; 77.9% in assay [11]; 75.4% in assay [12]. The remaining activity at 0.1 µM in [13] was 95.6%; in assay [14], 88.2%; in assay [15], 99.7%; in [16] it was 94.2%; in assay [17] it was 88.2%; in [18], 92%. Moreover, the remaining activity at 0.1 µM in assay [19] is 46.6%; in assay [20], 99.9%; in [21] it was 59.5%; in [22] it was 80.9%; in assay [23], 98.6%; in [24], 92.7%.
